In PubChem BioAssay (NCI):
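Following 48 hours of exposure in 96-well plates, responses at five concentrations were used to interpolate endpoints linearly. TGI marks complete inhibition of growth.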

Columns and labels:
Experiment in all cases: NCI anticancer screen, dose series, 48 h
[1] = test system: A549 NSCLC
[2] = test system: DU-145 prostate
[3] = test system: EKVX NSCLC
[4] = test system: HCT-15 colon
[5] = test system: MDA-N
[6] = test system: NCI-H522 lung
[7] = test system: OVCAR-4 ovarian
[8] = test system: OVCAR-5 ovarian
[9] = test system: SK-MEL-5 melanoma
[10] = test system: SNB-19 CNS
[11] = test system: SR leukemia

Compound: N=C(N)c1ccc(N=Nc2c(O)c(C(=O)Nc3ccccc3)cc3ccccc23)cc1
- TGI [1]: > 100 µM
- TGI [2]: > 100 µM
- TGI [3]: 41.9 µM
- TGI [4]: > 48.8 µM
- TGI [5]: > 100 µM
- TGI [6]: 34.5 µM
- TGI [7]: 33.1 µM
- TGI [8]: > 62.4 µM
- TGI [9]: > 49.6 µM
- TGI [10]: 51.5 µM
- TGI [11]: > 75.8 µM

Compound: CC1=NN(c2cc(Cl)c(S(=O)(=O)O)cc2Cl)C2(C1)C(Cl)C(=O)N2c1nc2ccccc2s1 (centres undefined)
- TGI [1]: > 100 µM
- TGI [2]: > 100 µM
- TGI [3]: > 100 µM
- TGI [4]: > 100 µM
- TGI [5]: > 100 µM
- TGI [6]: 71.2 µM
- TGI [7]: > 100 µM
- TGI [8]: > 100 µM
- TGI [9]: > 100 µM
- TGI [10]: > 100 µM
- TGI [11]: > 100 µM

Compound: Clc1ccc(-c2nn3c(COc4ccc(OCc5nnc6sc(-c7ccc(Cl)cc7)nn56)c(Cl)c4)nnc3s2)cc1
- TGI [1]: 90.2 µM
- TGI [2]: > 100 µM
- TGI [3]: > 100 µM
- TGI [4]: > 100 µM
- TGI [5]: 67.2 µM
- TGI [6]: 37.4 µM
- TGI [7]: > 100 µM
- TGI [8]: 71.7 µM
- TGI [9]: 80.2 µM
- TGI [10]: 31.7 µM
- TGI [11]: 61.4 µM

Compound: COc1cc2ccc(C(C)NCC#N)cc2cc1OC (centres undefined)
- TGI [1]: > 100 µM
- TGI [2]: > 100 µM
- TGI [3]: > 100 µM
- TGI [4]: > 100 µM
- TGI [5]: > 100 µM
- TGI [6]: > 100 µM
- TGI [7]: > 100 µM
- TGI [8]: > 100 µM
- TGI [9]: > 100 µM
- TGI [10]: > 100 µM
- TGI [11]: > 100 µM

Compound: Fc1cccc(C2ON=C(c3ccccc3)N2C23CC4CC(CC(C4)C2)C3)c1 (centres undefined)
- TGI [1]: > 10 µM
- TGI [2]: > 10 µM
- TGI [3]: > 10 µM
- TGI [4]: > 10 µM
- TGI [5]: > 10 µM
- TGI [6]: > 10 µM
- TGI [7]: > 10 µM
- TGI [8]: > 10 µM
- TGI [9]: > 10 µM
- TGI [10]: > 10 µM
- TGI [11]: > 10 µM

Compound: COc1cc(-c2cc(OC)c(OC)c3ccc(Br)cc23)c2cc(Br)ccc2c1OC
- TGI [1]: 45.2 µM
- TGI [2]: 93.4 µM
- TGI [3]: > 100 µM
- TGI [4]: > 100 µM
- TGI [5]: 42.7 µM
- TGI [6]: 72.1 µM
- TGI [7]: 31.1 µM
- TGI [8]: 39.2 µM
- TGI [9]: > 100 µM
- TGI [10]: > 100 µM
- TGI [11]: 86 µM

Compound: Cc1c(-c2ccccc2)oc(=O)c2ccccc12
- TGI [1]: > 100 µM
- TGI [2]: > 100 µM
- TGI [3]: 60.9 µM
- TGI [4]: 54.2 µM
- TGI [5]: 59.3 µM
- TGI [6]: 33.2 µM
- TGI [7]: 71.4 µM
- TGI [8]: 80.9 µM
- TGI [9]: 33.8 µM
- TGI [10]: > 100 µM
- TGI [11]: 65.4 µM

Compound: O=c1c2ccccc2n2nnc3ccc(NCCNCCO)c1c32
- TGI [1]: 3.5 µM
- TGI [2]: 2.7 µM
- TGI [3]: 8.87 µM
- TGI [4]: 9.42 µM
- TGI [5]: 10.3 µM
- TGI [6]: 7.23 µM
- TGI [7]: 6.34 µM
- TGI [8]: 7 µM
- TGI [9]: 4.37 µM
- TGI [10]: 17.7 µM
- TGI [11]: 8.05 µM

Compound: COc1ccccc1-c1cc(=O)c2cccnc2[nH]1
- TGI [1]: > 100 µM
- TGI [2]: > 100 µM
- TGI [3]: > 100 µM
- TGI [4]: > 100 µM
- TGI [5]: 56.7 µM
- TGI [6]: > 100 µM
- TGI [7]: > 100 µM
- TGI [8]: > 100 µM
- TGI [9]: > 100 µM
- TGI [10]: > 100 µM
- TGI [11]: > 100 µM

Compound: CSC1=C(C)C(/C=N/Nc2ccc([N+](=O)[O-])cc2)=C(C)N(c2ccccc2)S1(=O)=O
- TGI [1]: > 100 µM
- TGI [2]: > 100 µM
- TGI [3]: > 100 µM
- TGI [4]: > 100 µM
- TGI [5]: > 100 µM
- TGI [6]: > 100 µM
- TGI [7]: > 100 µM
- TGI [8]: > 100 µM
- TGI [9]: > 100 µM
- TGI [10]: > 100 µM
- TGI [11]: > 100 µM

Compound: C=C(CCC(=O)N(CCc1c[nH]c2ccccc12)C(=O)c1ccccc1CSCC)C(=O)OC
- TGI [1]: > 100 µM
- TGI [2]: > 100 µM
- TGI [3]: > 100 µM
- TGI [4]: > 100 µM
- TGI [5]: > 100 µM
- TGI [6]: > 100 µM
- TGI [7]: > 100 µM
- TGI [8]: > 100 µM
- TGI [9]: > 100 µM
- TGI [10]: > 100 µM
- TGI [11]: > 100 µM

Compound: CN=C1C=C(/N=C2/C=C(N/C(=C\C#N)C(C)(C)O)OC2(C)C)OC1(C)C
- TGI [1]: > 100 µM
- TGI [2]: > 100 µM
- TGI [3]: > 100 µM
- TGI [4]: > 100 µM
- TGI [5]: > 100 µM
- TGI [6]: 69 µM
- TGI [7]: > 100 µM
- TGI [8]: > 100 µM
- TGI [9]: > 85.7 µM
- TGI [10]: > 100 µM
- TGI [11]: > 68.5 µM

Compound: CCOc1ccc(Nc2nc(N)nc(N)c2N=O)cc1
- TGI [1]: > 100 µM
- TGI [2]: > 100 µM
- TGI [3]: > 100 µM
- TGI [4]: > 100 µM
- TGI [5]: > 100 µM
- TGI [6]: > 100 µM
- TGI [7]: > 100 µM
- TGI [8]: > 100 µM
- TGI [9]: > 100 µM
- TGI [10]: > 100 µM
- TGI [11]: > 100 µM

Compound: CN(CC(=O)O)c1ncc2c(n1)-c1ccccc1CC2
- TGI [1]: > 100 µM
- TGI [2]: > 100 µM
- TGI [3]: > 100 µM
- TGI [4]: > 100 µM
- TGI [5]: > 100 µM
- TGI [6]: > 100 µM
- TGI [7]: > 100 µM
- TGI [8]: > 100 µM
- TGI [9]: > 100 µM
- TGI [10]: > 100 µM
- TGI [11]: > 100 µM
